pIC50: −log10 of the molar value.
Assays:
[1] = Inhibition of Phosphodiesterase 5
[2] = Inhibition of Phosphodiesterase 5; remark: listed apart in the source

SMILES | pIC50 [1] | pIC50 [2]
COc1cc2c3c(n1)C(c1ccccc1)=N[C@@H](NC(=O)c1cccnc1)C(=O)N3CC2 | < 4.00 | 
COc1cc2c3c(n1)C(c1ccccc1)=NCC(=O)N3CC2 [4-Methoxy-6-phenyl-1,2-dihydro-8H-5,7,9a-triaza-benzo[cd]azulen-9-one] | 4.04 | 
COc1cc2c3c(n1)C(c1ccccc1)=NC(NC(=O)c1cccnc1)C(=O)N3CC2 (centres undefined) [N-(4-methoxy-9-oxo-6-phenyl-1,2,8,9-tetrahydro-5,7,9a-triazabenzo[cd]azulen-8-yl)nicotinamide] | < 4.00 | 4.02

Source: BindingDB's records for doi:10.1016/j.bmcl.2004.03.067 (Pfizer, 2004)
